{"source": "patent US9260461B2", "about": "“Water-soluble derivatives and prodrugs of acacetin and methods of making and using thereof” (Versitech Limited, priority 2014, dated 2016)", "key": {"IKACh": {"target": "T1, IKACh (Rattus norvegicus, UniProt P48548+P63251)", "T1 construct": "from tissue; host or cells: freshly isolated left atrial myocytes of SD rats", "T1 sequence (P63251 1-501)": "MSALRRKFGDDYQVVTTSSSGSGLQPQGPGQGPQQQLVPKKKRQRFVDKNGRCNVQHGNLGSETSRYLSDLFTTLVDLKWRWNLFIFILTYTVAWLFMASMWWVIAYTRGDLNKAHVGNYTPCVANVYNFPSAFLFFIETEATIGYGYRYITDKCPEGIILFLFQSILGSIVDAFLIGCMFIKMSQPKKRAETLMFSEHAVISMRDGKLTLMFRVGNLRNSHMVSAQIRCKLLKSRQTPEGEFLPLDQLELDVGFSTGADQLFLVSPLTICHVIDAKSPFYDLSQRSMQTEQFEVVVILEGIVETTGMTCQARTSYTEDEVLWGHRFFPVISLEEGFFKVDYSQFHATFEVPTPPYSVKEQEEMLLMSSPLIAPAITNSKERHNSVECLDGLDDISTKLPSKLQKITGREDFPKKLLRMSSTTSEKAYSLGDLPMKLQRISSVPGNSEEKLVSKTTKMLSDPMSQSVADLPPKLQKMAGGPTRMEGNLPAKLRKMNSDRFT", "T1 sequence (P48548 1-419)": "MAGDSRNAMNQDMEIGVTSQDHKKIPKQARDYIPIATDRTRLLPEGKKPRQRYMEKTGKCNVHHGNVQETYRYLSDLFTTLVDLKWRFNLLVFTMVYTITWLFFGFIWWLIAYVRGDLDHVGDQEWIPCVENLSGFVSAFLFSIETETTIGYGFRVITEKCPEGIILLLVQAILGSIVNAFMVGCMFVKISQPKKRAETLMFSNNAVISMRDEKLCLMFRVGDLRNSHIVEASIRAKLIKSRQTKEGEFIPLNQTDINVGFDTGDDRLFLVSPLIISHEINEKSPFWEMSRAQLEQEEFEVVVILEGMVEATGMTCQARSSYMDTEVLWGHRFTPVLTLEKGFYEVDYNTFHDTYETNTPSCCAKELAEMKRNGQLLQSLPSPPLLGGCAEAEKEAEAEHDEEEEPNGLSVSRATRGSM", "test": "Whole-cell patch-clamp, IKACh activated by 5 μM carbachol in rat atrial myocytes", "format": "cell-based", "conditions": "30 μM, representative cells", "method": "Rat atrial myocytes were prepared with the procedure described previously (Li et al., 2002) with a slight modification. Briefly, After SD rats (250-300 g) were anesthetized with pentobarbital (30 mg/kg i.p.), the heart was mounted to a Langendorff heart perfusion apparatus via the aorta and perfused with HEPES-buffered Tyrode's solution at 37° C. gassed with 100% 02 for 5 min. The heart was perfused with Ca^2+-free Tyrode's solution for 5-8 min, followed by Ca^2+-free Tyrode's solution containing 0.06% collagenase (Type II, Worthington Biochemical, Lakewood, N.J., USA) and 0.1% bovine serum albumin (Sigma). When the heart became softened the left atrium was excised and placed in a high-K storage medium at room temperature for 2 h, and then used for electrophysiological recording (Li et al., 2002).\nIonic currents in HEK 293 cell lines and rat atrial myocytes were measured by the standard whole-cell patch-clamp technique using a standard pipette and bath solution with an EPC-10 amplifier and Pulse software (HEKA, Lambrecht, Germany). A 3M KCl-agar salt bridge was used as the reference electrode. The current signal was sampled at 5 kHz, recorded and stored in the hard disk of an IBM compatible computer. All experiments were conducted at room temperature (22-23° C.). […]"}, "[1]": {"tested_on": "ventricular arrhythmias induced by ischemia-reperfusion injury", "test": "Ischemia-reperfusion model in anesthetized rats (ventricular arrhythmias, heart rate, left ventricular contractile function)", "format": "in vivo, Sprague-Dawley (SD) rats", "conditions": "for incidence of severe ventricular fibrillation: 90% in vehicle, P<0.05", "method": "Adult male Sprague-Dawley (SD) rats (250-300 g) were anesthetized with pentobarbital (30 mg/kg i.p.), supplemented during the experiment when needed. The animal was intubated and ventilated. Body temperature was maintained at 37° C. with a temperature control system. The jugular vein was cannulated for drug administration and a plastic tubing (0.8 mm OD) was introduced into the left ventricle through the […] to measure the contractile function (e.g. left ventricular pressure). The left chest was opened under ventilation to expose the coronary artery. A fine silk was introduced at the upper ⅓ left anterior coronary descending artery (LA). After a 10-min stabilization period, the drug at 5, 10, or 20 mg/kg was intravenously administrated respectively in 5 min, and an equal volume (1 mL/kg) of vehicle was administrated for the control. LAD was then ligated for 10 min followed a 30-min reperfusion. ECG and blood pressure signals were continuously monitored and stored on an IBM compatible PC computer using a multiple channels data acquisition system (RM-6280C, Chengdu Instrument Ltd, Chendu, China) to record the incidence of ventricular arrhythmia (i.e. fibrillation, tachycardia, and premature beats) and […].\nTo investigate the effects of water-soluble Prodrug A on ventricular arrhythmias induced by ischemia-reperfusion injury, the in vivo ischemia-reperfusion model was established in SD rats. In this model, the animal, ventricular arrhythmias, including premature ventricular beats (PVBs), and ventricular tachycardia (VT), were developed with 10 min ischemia (ligation of coronary anterior descending artery) followed by […]. Ventricular fibrillation was frequently observed during the early reperfusion in the control animal with intravenous vehicle (FIG. 1A), but not in the animal treated with intravenous Prodrug A (10 mg/kg for 5 min, FIG. 1B). Prodrug A at 5 mg, 10, and 20 mg/kg decreased arrhythmia score (FIG. 1C) and arrhythmia duration in a dose-dependent manner (P<0.05 or P<0.01 vs. vehicle).\nIn addition to the anti-ventricular fibrillation, Prodrug A prevented heart rate reduction (FIG. 2A), and improved the decreased function contractile function including left ventricular systolic pressure (FIG. 2B), development pressure (FIG. 2C), and +dP/dT (FIG. 2D) induced by ischemia and/or reperfusion injury in a dose-dependent manner (P<0.05 or P<0.01 vs. vehicle)."}, "[2]": {"conditions": "10 mg and 20 mg/kg, before ligation"}, "[3]": {"conditions": "5, 10 and 20 mg/kg i.v., dose-dependent, P<0.05 or P<0.01 vs. vehicle"}, "[4]": {"conditions": "i.v., dose-dependent, P<0.05 or P<0.01 vs. vehicle"}}, "data": [{"smiles": "COc1ccc(-c2cc(=O)c3c(O)cc(OP(=O)(O)O)cc3o2)cc1", "note": "[Prodrug A]", "values": [{"measurement": "effect on IKACh", "setting": "IKACh", "result": "no inhibitory effect"}, {"measurement": "heart rate before coronary artery ligation", "setting": "[1]; [2]", "result": "without affecting"}, {"measurement": "left ventricular development pressure before coronary artery ligation", "setting": "[1]; [2]", "result": "slightly but significantly increased"}, {"measurement": "left ventricular systolic pressure before coronary artery ligation", "setting": "[1]; [2]", "result": "slightly but significantly increased"}, {"measurement": "incidence of severe ventricular fibrillation", "setting": "[1]; 10 mg/kg i.v.", "result": 30, "unit": "%"}, {"measurement": "incidence of severe ventricular fibrillation", "setting": "[1]; 20 mg/kg i.v.", "result": 20, "unit": "%"}, {"measurement": "arrhythmia duration", "setting": "[1]; [3]", "result": "decreased"}, {"measurement": "arrhythmia score", "setting": "[1]; [3]", "result": "decreased"}, {"measurement": "decreased +dP/dT induced by ischemia and/or reperfusion injury", "setting": "[1]; [4]", "result": "improved"}, {"measurement": "decreased left ventricular development pressure induced by ischemia and/or reperfusion injury", "setting": "[1]; [4]", "result": "improved"}, {"measurement": "decreased left ventricular systolic pressure induced by ischemia and/or reperfusion injury", "setting": "[1]; [4]", "result": "improved"}, {"measurement": "heart rate reduction induced by ischemia and/or reperfusion injury", "setting": "[1]; [4]", "result": "prevented"}]}]}
